Patent publication US20200216439A1, “HETERO-1,5,6,7-TETRAHYDRO-4H-INDOL-4-ONES” (BAYER PHARMA AKTIENGESELLSCHAFT, priority 2015, published 2020)

The compounds below were run against T1, catalytic domain of human Bub1 (amino acids 704-1085) (Homo sapiens, UniProt O43683) (assay: Bub1 kinase assay (TR-FRET)). Details: TR-FRET; ATP 10 μM, peptide substrate 1 μM; 60 min at 22° C.; average or median if tested more than once; read-out: Inhibition of Bub1 kinase IC50.
T1 construct: catalytic domain of human Bub1 (amino acids 704-1085); His6 (N); made in house; host or cells: Hi5 insect cells
T1 sequence (O43683 704-1085): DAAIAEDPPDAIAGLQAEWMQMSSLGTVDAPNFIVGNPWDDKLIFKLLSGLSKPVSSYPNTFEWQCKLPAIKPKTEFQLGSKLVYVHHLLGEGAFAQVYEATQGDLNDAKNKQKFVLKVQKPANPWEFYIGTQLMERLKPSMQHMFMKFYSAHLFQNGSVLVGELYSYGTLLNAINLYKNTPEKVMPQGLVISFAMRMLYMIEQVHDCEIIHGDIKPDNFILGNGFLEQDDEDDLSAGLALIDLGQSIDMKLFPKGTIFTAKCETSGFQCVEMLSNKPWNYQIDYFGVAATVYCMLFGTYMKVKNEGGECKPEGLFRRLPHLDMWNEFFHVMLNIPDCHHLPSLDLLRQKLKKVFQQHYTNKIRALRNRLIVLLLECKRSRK
Assay type: biochemical
Procedure, shortened: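 Human Bub1 catalytic domain (704-1085, His6-tagged, Hi5-expressed, ~200 ng/mL) preincubated with compound 15 min at 22 °C, then reacted 60 min at 22 °C with 10 μM ATP and 1 μM biotinylated peptide substrate, pH 7.5. EDTA stop; TR-FRET 665/620 ratio; IC50 from 4-parameter fit, 11 concentrations in duplicate.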

Row | Compound | IC50 [nM]
1 | CC(C)(C)OC(=O)N1CC(=O)c2c([nH]c(-c3ccnc(NC(=O)[C@@H]4C[C@@H]4F)c3)c2Nc2ccccc2)C1 [Example 196, tert-Butyl 3-anilino-2-[2-({[(1S,2S)-2-fluorocyclopropyl]carbonyl}amino)pyridin-4-yl]-4-oxo-1,4,5,7-tetrahydro-6H-pyrrolo[2,3-c]pyridine-6-carboxylate] | 7
2 | O=C1CNCc2[nH]c(-c3ccnc(NC(=O)[C@@H]4C[C@@H]4F)c3)c(Nc3ccccc3)c21 [Example 197, (1S,2S)—N-[4-(3-anilino-4-oxo-4,5,6,7-tetrahydro-1H-pyrrolo[2,3-c]pyridin-2-yl)pyridin-2-yl]-2-fluorocyclopropanecarboxamide] | 40
3 | CCC(=O)N1CC(=O)c2c([nH]c(-c3ccnc(NC(=O)[C@@H]4C[C@@H]4F)c3)c2Nc2ccccc2)C1 [Example 198, (1S,2S)-2-Fluoro-N-4-[4-oxo-3-(phenylamino)-6-propanoyl-4,5,6,7-tetrahydro-1H-pyrrolo[2,3-c]pyridin-2-yl]pyridin-2-ylcyclopropanecarboxamide] | 3
4 | CC(C)(O)CC(=O)N1CC(=O)c2c([nH]c(-c3ccnc(NC(=O)[C@@H]4C[C@@H]4F)c3)c2Nc2ccccc2)C1 [Example 201] | 6
5 | O=C1CN(C(=O)CCO)Cc2[nH]c(-c3ccnc(NC(=O)[C@@H]4C[C@@H]4F)c3)c(Nc3ccccc3)c21 [Example 202, (1S,2S)-2-Fluoro-N-4-[6-(3-hydroxypropanoyl)-4-oxo-3-(phenylamino)-4,5,6,7-tetrahydro-1H-pyrrolo[2,3-c]pyridin-2-yl]pyridin-2-ylcyclopropanecarboxamide] | 8
6 | CS(=O)(=O)N1CC(=O)c2c([nH]c(-c3ccnc(NC(=O)[C@@H]4C[C@@H]4F)c3)c2Nc2ccccc2)C1 [Example 203] | 2
7 | O=C1CN(S(=O)(=O)c2cnc[nH]2)Cc2[nH]c(-c3ccnc(NC(=O)[C@@H]4C[C@@H]4F)c3)c(Nc3ccccc3)c21 [Example 204, (1S,2S)-2-Fluoro-N-4-[6-(1H-imidazol-5-ylsulfonyl)-4-oxo-3-(phenylamino)-4,5,6,7-tetrahydro-1H-pyrrolo[2,3-c]pyridin-2-yl]pyridin-2-ylcyclopropanecarboxamide] | 3
8 | CN(C)C(=O)N1CC(=O)c2c([nH]c(-c3ccnc(NC(=O)[C@@H]4C[C@@H]4F)c3)c2Nc2ccccc2)C1 [Example 207, 2-[2-([(1S,2S)-2-Fluorocyclopropyl]carbonylamino)pyridin-4-yl]-N,N-dimethyl-4-oxo-3-(phenylamino)-1,4,5,7-tetrahydro-6H-pyrrolo[2,3-c]pyridine-6-carboxamide] | 3
9 | CCNC(=O)N1CC(=O)c2c([nH]c(-c3ccnc(NC(=O)[C@@H]4C[C@@H]4F)c3)c2Nc2ccccc2)C1 [Example 208, N-Ethyl-2-[2-([(1S,2S)-2-fluorocyclopropyl]carbonylamino)pyridin-4-yl]-4-oxo-3-(phenylamino)-1,4,5,7-tetrahydro-6H-pyrrolo[2,3-c]pyridine-6-carboxamide] | 5
10 | CN1CCN(C(=O)N2CC(=O)c3c([nH]c(-c4ccnc(NC(=O)[C@@H]5C[C@@H]5F)c4)c3Nc3ccccc3)C2)CC1 [Example 209, (1S,2S)-2-Fluoro-N-(4-6-[(4-methylpiperazin-1-yl)carbonyl]4-oxo-3-(phenylamino)-4,5,6,7-tetrahydro-1H-pyrrolo[2,3-c]pyridin-2-ylpyridin-2-yl)cyclopropanecarboxamide] | 7
11 | O=C1CN(C(=O)C2CC2)Cc2[nH]c(-c3ccnc(NC(=O)[C@@H]4C[C@@H]4F)c3)c(Nc3ccccc3)c21 [Example 212, (1S,2S)—N-4-[6-(Cyclopropylcarbonyl)-4-oxo-3-(phenylamino)-4,5,6,7-tetrahydro-1H-pyrrolo[2,3-c]pyridin-2-yl]pyridin-2-yl-2-fluorocyclopropanecarboxamide] | 3
12 | CC(C)(C)C(=O)N1CC(=O)c2c([nH]c(-c3ccnc(NC(=O)[C@@H]4C[C@@H]4F)c3)c2Nc2ccccc2)C1 [Example 213] | 2

The next lines start with the values.

Row | IC50 [nM] | Compound
13 | 30 | CSCCC(=O)N1CC(=O)c2c([nH]c(-c3ccnc(NC(C)=O)c3)c2Nc2ccccc2)C1 [Example 192]
14 | 19 | CC(=O)Nc1cc(-c2[nH]c3c(c2Nc2ccccc2)C(=O)CN(C(=O)c2cnsc2)C3)ccn1 [Example 193, N-{4-[3-Anilino-4-oxo-6-(1,2-thiazol-4-ylcarbonyl)-4,5,6,7-tetrahydro-1H-pyrrolo[2,3-c]pyridin-2-yl]pyridin-2-yl}acetamide]
15 | 46 | CC(=O)Nc1cc(-c2[nH]c3c(c2Nc2ccccc2)C(=O)CN(C(=O)c2cscn2)C3)ccn1 [Example 194, N-{4-[3-Anilino-4-oxo-6-(1,3-thiazol-4-ylcarbonyl)-4,5,6,7-tetrahydro-1H-pyrrolo[2,3-c]pyridin-2-yl]pyridin-2-yl}acetamide]
16 | 24 | CC(=O)Nc1cc(-c2[nH]c3c(c2Nc2ccccc2)C(=O)CN(C(=O)c2cocn2)C3)ccn1 [Example 195, N-{4-[3-Anilino-6(1,3-oxazol-4-ylcarbonyl)-4-oxo-4,5,6,7-tetrahydro-1H-pyrrolo[2,3-c]pyridin-2-yl]pyridin-2-yl}acetamide]
17 | 20 | CC(=O)Nc1cc(-c2[nH]c3c(c2Nc2ccccc2)C(=O)CN(C(=O)c2ncco2)C3)ccn1 [Example 199, N-4-[6-(1,3-Oxazol-2-ylcarbonyl)-4-oxo-3-(phenylamino)-4,5,6,7-tetrahydro-1H-pyrrolo[2,3-c]pyridin-2-yl]pyridin-2-ylacetamide]
18 | 7 | O=C1CN(C(=O)c2ccncc2)Cc2[nH]c(-c3ccnc(NC(=O)[C@@H]4C[C@@H]4F)c3)c(Nc3ccccc3)c21 [Example 200, (1S,2S)-2-Fluoro-N-4-[4-oxo-3-(phenylamino)-6-(pyridin-4-ylcarbonyl)-4,5,6,7-tetrahydro-1H-pyrrolo[2,3-c]pyridin-2-yl]pyridin-2-ylcyclopropanecarboxamide]
19 | 3 | COC(=O)N1CC(=O)c2c([nH]c(-c3ccnc(NC(=O)[C@@H]4C[C@@H]4F)c3)c2Nc2ccccc2)C1 [Example 205, Methyl 2-[2-([(1S,2S)-2-fluorocyclopropyl]carbonylamino)pyridin-4-yl]-4-oxo-3-(phenylamino)-1,4,5,7-tetrahydro-6H-pyrrolo[2,3-c]pyridine-6-carboxylate]
20 | 4 | CNC(=O)N1CC(=O)c2c([nH]c(-c3ccnc(NC(=O)[C@@H]4C[C@@H]4F)c3)c2Nc2ccccc2)C1 [Example 206, 2-[2-([(1S,2S)-2-Fluorocyclopropyl]carbonylamino)pyridin-4-yl]-N-methyl-4-oxo-3-(phenylamino)-1,4,5,7-tetrahydro-6H-pyrrolo[2,3-c]pyridine-6-carboxamide]
21 | 3 | CC(=O)Nc1cc(-c2[nH]c3c(c2Nc2ccccc2)C(=O)CN(C(=O)CCS(C)(=O)=O)C3)ccn1 [Example 210, N-(4-6-[3-(Methylsulfonyl)propanoyl]-4-oxo-3-(phenylamino)-4,5,6,7-tetrahydro-1H-pyrrolo[2,3-c]pyridin-2-ylpyridin-2-yl)acetamide]
22 | 4 | CC(=O)Nc1cc(-c2[nH]c3c(c2Nc2ccccc2)C(=O)CN(C(=O)CCF)C3)ccn1 [Example 211, N-4-[6-(3-Fluoropropanoyl)-4-oxo-3-(phenylamino)-4,5,6,7-tetrahydro-1H-pyrrolo[2,3-c]pyridin-2-yl]pyridin-2-ylacetamide]
